Reference: patent US10233157B2, “SIK inhibitor for use in a method of treating an inflammatory and/or immune disorder” (Dana-Farber Cancer Institute, Inc., priority 2012, dated 2019)
Entries after “also recorded” stand apart in the source; their conditions may differ.

How the values were obtained:
[1] = test system: LPS-stimulated macrophages; test: Cytokine secretion in TLR-stimulated bone-marrow derived macrophages; format: cell-based, mouse
Protocol: (§1) Bone-marrow derived macrophages were differentiated for 7 days in DMEM supplemented with 5 ng/ml recombinant M-CSF (R&D systems), 2 mM glutamine, 10% foetal calf serum, penicillin and streptomycin.
(§2) Following stimulation with ligands, the cell culture medium was removed, clarified by centrifugation for 10 min at 14000×g and the concentration of TNFα, IL-6, IL-10, IL-12p40, and RANTES were measured using the Bio-Plex Pro Assay system from Bio-Rad. IFNβ was measured using an ELISA kit from R&D Systems according to the manufacturers' instructions.
RNA was extracted using the RNeasy Micro Kit (Qiagen). cDNA was generated using the iScript cDNA synthesis kit and quantified by qPCR using the SsoFast EvaGreen Supermix (Bio-Rad Laboratories). […] Fold-induction for each gene was reported relative to untreated control cells, which was set to 1. The concentrations of TNFα, IL-6, IL-10, IL-12p40, and RANTES in culture supernatants were measured using the Bio-Plex Pro Assay system from Bio-Rad. Further details in supplementary information.
Following stimulation with ligands, the cell culture medium was removed, clarified by centrifugation for 10 min at 14000×g and the concentration of TNFα, IL-6, IL-10, IL-12p40 and RANTES were measured using the Bio-Plex Pro Assay system from Bio-Rad. IL-1ra and IFNβ were measured using ELISA kits from R&D Systems.

[2] = test system: LPS-stimulated BMDMs; test: Expression of macrophage markers in LPS-stimulated BMDMs (qPCR); format: cell-based, mouse; conditions: for LPS-stimulated expression of SPHK1, LIGHT and Arginase 1: 500 nM
Protocol: FIGS. 10A to 10E. Inhibition of the LKB1-SIK-CRTC3-IL10 signaling axis drives the expression of markers of regulatory macrophages. (FIG. 10A) Effect of SIK inhibitors on the LPS-stimulated expression of LIGHT, SPHK1, Arg1 and IL-1ra (n=4, mean±SD). […] (FIG. 10C) Elevated expression of markers of regulatory macrophage in LKB1−/− macrophages. BMDMs were generated from LysM-Cre/LKB1+/+ and LysM-Cre/LKB1flox/flox mice and stimulated with 100 ng/ml LPS (mean±SD, n=3). (FIG. 10D) CRTC3 is required for the induction of markers of regulatory macrophages. […] LIGHT and SPHK1 mRNA was measured at 2 h and Arg1 at 8 h post-LPS stimulation (mean±SD, n=4). […] The experiment was carried out as in (FIG. 10D) except that BMDMs were generated from IL-10+/+ and IL-10−/− mice (mean±SD, n=4).
mRNA was extracted from cells using the RNeasy Micro Kit following the manufacturers' instructions (Qiagen). cDNA was generated from 1 μg of total RNA using the iScript cDNA synthesis kit and quantified by qPCR using the SsoFast EvaGreen Supermix on a CFX96 real time system (Bio-Rad Laboratories). The relative expression of each gene was calculated from Ct values using the Pfaffl method (5) and was normalized against the mRNA levels of 18S RNA or GAPDH. Results are reported relative to untreated control cells, which was set to 1. The following primers were used: […]

[3] = test system: CRTC3; test: IL-10 production in macrophages after siRNA knockdown of CRTC3; format: cell-based, mouse; conditions: TLR/LPS-stimulated macrophages
Text: BMDMs were transfected with siRNA oligonucleotides against CRTC1, CRTC2, CRTC3 or non-targetting oligonucleotides as a negative control. […] Gene expression was quantified by qPCR and reported relative to mRNA levels measured in untreated cells (1.0). Knockdown efficiency was monitored by qPCR (mean±SD, n=4).
RNAi in Macrophages RAW264.7 cells or BMDMs were transfected with 100 pmol of SMARTpool siRNA oligos against CREB, CRTC1, CRTC2, CRTC3 or a non-targetting control (Dharmacon) using AMAXA nucleofection. Cells were cultured for 24 h prior to incubation with inhibitors for 1 h followed by stimulation for 1 h with 100 ng/ml LPS. Gene expression was measured by real-time quantitative PCR. For shRNA knockdown of SIKs, lentivirus was generated according to the manufacturer's instructions (Sigma) and RAW264.7 cells were infected using virus harvested 48 and 72 h post-transfection. Infected cells were selected using 3 μg/ml puromycin. QPCR

[4] = test system: AMPK-related kinases; format: biochemical; conditions: members of the AMPK subfamily other than SIKs
Protocol: Recombinant SIK1, SIK2, SIK3 were expressed as GST-fusion proteins in HEK293 cells and purified on a glutathione-Sepharose column. […] FLAG-CRTC3 was immunoprecipitated using anti-FLAG M2 agarose, washed in kinase buffer (50 mM Tris/HCl pH 7.4, 10 mM Mg acetate, 0.1 mM EGTA, 2 mM DTT) and reactions initiated by adding 4 U/ml recombinant kinase with 0.1 mM ATP (specific activity 3000 cpm/pmol). Phosphorylation of CRTC3 was monitored by autoradiography as well as immunoblotting using phosphospecific antibodies raised against Ser162, Ser329 and Ser370. […] Kinase profiling was performed as previously described (7) and performed by the International Centre for Kinase Profiling (www.kinase-screen.mrc.ac.uk).

[5] = test system: CREB luciferase reporter; test: CREB luciferase reporter assay in HEK293 cells; format: cell-based; conditions: HEK293, 2 μM MRT67307, 10 μM forskolin 2 h
Protocol: FIG. 5. […] HEK293 cells were co-transfected with DNA encoding a CREB luciferase reporter construct and pTK-RL. […] Luciferase activity was measured with a dual luciferase assay system (Promega) and was normalized to Renilla luciferase activity (n=3, mean±SEM).
HEK293 cells were co-transfected with DNA encoding FLAG-CRTC3 or phosphomutants along with a CREB firefly luciferase reporter construct (pCRE-luc from Stratagene) and pTK-RL which encodes renilla luciferase under the control of a constitutive promoter. At 24 h post-transfection, cells were treated with or without 10 μM KIN112 for a further 24 h. Firefly luciferase activity was measured with a dual luciferase assay system (Promega) and was normalized to Renilla luciferase activity.

[6] = test system: LKB1−/− cells; test: CREB-dependent gene transcription in IL-1 stimulated LKB1+/+ and LKB1−/− MEFs; format: cell-based, mouse
[7] = test system: IL-10−/− macrophages; test: Cytokine production in IL-10−/− macrophages; format: cell-based, mouse; conditions: all TLR ligands examined other than LPS
Protocol: FIGS. 2A to 2G. […] As in A except that cells were stimulated for 2 h with LPS.
IL-10^−/− mice on a C57Bl/6 background were purchased from The Jackson Laboratory, Maine, USA. C57Bl/6, and IL-10^−/− mice were bred at the University of Dundee under specific pathogen-free conditions in accordance with European Union regulations. Work was approved by local ethical review and was performed with a UK Home Office project license.
as §1, §2

COc1ccc(N(C(=O)Nc2c(C)cccc2C)c2cc(Nc3ccc(N4CCN(C)CC4)cc3)ncn2)c(OC)c1 [HG-9-91-01, 1-(2,4-dimethoxyphenyl)-3-(2,6-dimethylphenyl)-1-(6-((4-(4-methylpiperazin-1-yl)phenyl)amino)pyrimidin-4-yl)urea]
IL-10 secretion ([1]; LPS-stimulated macrophages): stimulate IL-10 secretion in a dose dependent manner; also recorded: increased | pro-inflammatory cytokine secretion ([1]; LPS-stimulated macrophages): greatly suppressed | LPS-stimulated expression of SPHK1, LIGHT and Arginase 1 ([2]; IL-10−/− macrophages): greatly reduced | LPS-stimulated expression of SPHK1, LIGHT and Arginase 1 ([2]; cells treated with CRTC3 siRNA): did not occur | effect of compound on IL-10 production after siRNA knockdown of CRTC3 [3]: abolishes the effects; also recorded: CRTC3 was required | inhibition of AMPK-related kinases [4]: did not inhibit any other member

O=C(NCCCNc1nc(Nc2cccc(CN3CCOCC3)c2)ncc1C1CC1)C1CCC1 [MRT67307]
CREB-dependent luciferase transcription [5]: increases | IFNβ secretion ([1]; LPS): potently inhibited | IL-10 secretion ([1]; LPS-stimulated macrophages): stimulate IL-10 secretion in a dose dependent manner; also recorded: far higher levels of IL-10 | pro-inflammatory cytokine secretion ([1]; LPS-stimulated macrophages): much lower levels of pro-inflammatory cytokines | IL-10 secretion ([1]; in response to TLR ligands): high levels of IL-10 | IL-12p40 secretion ([1]; in response to TLR ligands): low levels of IL-12p40 | IL-1ra mRNA ([2]; LPS-stimulated macrophages): greatly increased | mRNAs of regulatory macrophage markers (arginase-1, SPHK1, LIGHT) ([2]; TLR/LPS-stimulated macrophages): stimulating the production | switch of macrophage programme from classically activated towards regulatory phenotype ([2]; quiescent macrophages): switched their maturation programme from the classically activated route towards the regulatory phenotype | effect of compound on IL-10 production after siRNA knockdown of CRTC3 [3]: completely suppressed the effects | inhibition of AMPK-related kinases [4]: potently inhibits | CREB-dependent gene transcription ([6]; LKB1+/+ cells): enhanced | transcription of Nurr1 and Nurr77 ([6]; LKB1−/− cells): only be increased to a small extent | secretion of pro-inflammatory cytokines [7]: failed to suppress
